According to BindingDB's records for patent US20250353864 (Blossomhill Therapeutics, 2025):

Key:
[1] = molecular target: Epidermal growth factor receptor [T790M,L858R] (Homo sapiens, UniProt P00533, L858R/T790M); assay: Biochemical Assays for Inhibition of Wild-Type and Mutant EGFRs
Experimental: (§1) Briefly, specific kinase/substrate pairs along with required cofactors were prepared in reaction buffer; 20 mM Hepes pH 7.5, 10 mM […], 1 mM EGTA, 0.02% Brij35, 0.02 mg/ml BSA, 0.1 mM Na3VO4, 2 mM DTT, 1% DMSO. Compounds were delivered into the reaction, followed […] later by addition of a mixture of ATP (Sigma, St. Louis MO) and 33P ATP (Perkin Elmer, Waltham MA) to a final concentration of 10 μM. Reactions were carried out at room temperature for 120 min, followed by spotting of the reactions onto P81 ion exchange filter paper (Whatman Inc., Piscataway, NJ). Unbound phosphate was removed by extensive washing of filters in 0.75% phosphoric acid. […] IC50 values and curve fits were obtained using Prism (GraphPad Software).

[2] = molecular target: Epidermal growth factor receptor [L858R,T790M,C797S] (Homo sapiens, UniProt P00533, C797S/L858R/T790M); assay: as above
Experimental: as §1

[3] = molecular target: Epidermal growth factor receptor (Homo sapiens, UniProt P00533); assay: as above
Experimental: as §1

[4] = molecular target: Epidermal growth factor receptor [L858R] (Homo sapiens, UniProt P00533, L858R); assay: as above
Experimental: as §1

[5] = molecular target: Dual specificity protein kinase CLK2 (Homo sapiens, UniProt P49760); assay: Inhibition of CLK, CLK2, CLK3 and CLK4 Kinase Activity Evaluated at Nanosyn
Experimental: (§2) Table 3: Kinase protein and substrate were pre-diluted in the HEPES assay buffer (100 mM HEPES, pH 7.5, 0.01% Triton X-100, 0.1% BSA, 5 mM MgCl2, […] DTT, […], […] Beta-Glycerophosphate) dispensed into 384 well plate (5 μL per well). Control samples (0%-inhibition in the absence of inhibitor, DMSO only) and 100%-inhibition (in the absence of enzyme) were assembled in replicates of six and were used to calculate %-inhibition in the presence of compounds. Test compounds were added to the protein samples by acoustic dispensing (Labcyte Echo550). Concentration of DMSO was equalized to 1% in all samples. Reactions were initiated by addition of ATP by acoustic dispensing (Labcyte Echo550) and incubated according to assay specific incubation time. After incubation. 5 μL of Promega ADP-Glo reagent was added and incubated for 40 minutes. After 40 minutes, 10 uL of Promega kinase detection reagent was added. After 10 min of incubation with Kinase detection reagent, the luminescence was read on microplate reader (Biotek Synergy).

[6] = molecular target: Dual specificity protein kinase CLK1 (Homo sapiens, UniProt P49759); assay: as above
Experimental: as §2

[7] = molecular target: Dual specificity protein kinase CLK4 (Homo sapiens, UniProt Q9HAZ1); assay: as above
Experimental: as §2

[8] = molecular target: Dual specificity protein kinase CLK3 (Homo sapiens, UniProt P49761); assay: as above
Experimental: as §2

Chain of Epidermal growth factor receptor [L858R,T790M,C797S] (P00533 25-1210 T790M/C797S/L858R limits assumed): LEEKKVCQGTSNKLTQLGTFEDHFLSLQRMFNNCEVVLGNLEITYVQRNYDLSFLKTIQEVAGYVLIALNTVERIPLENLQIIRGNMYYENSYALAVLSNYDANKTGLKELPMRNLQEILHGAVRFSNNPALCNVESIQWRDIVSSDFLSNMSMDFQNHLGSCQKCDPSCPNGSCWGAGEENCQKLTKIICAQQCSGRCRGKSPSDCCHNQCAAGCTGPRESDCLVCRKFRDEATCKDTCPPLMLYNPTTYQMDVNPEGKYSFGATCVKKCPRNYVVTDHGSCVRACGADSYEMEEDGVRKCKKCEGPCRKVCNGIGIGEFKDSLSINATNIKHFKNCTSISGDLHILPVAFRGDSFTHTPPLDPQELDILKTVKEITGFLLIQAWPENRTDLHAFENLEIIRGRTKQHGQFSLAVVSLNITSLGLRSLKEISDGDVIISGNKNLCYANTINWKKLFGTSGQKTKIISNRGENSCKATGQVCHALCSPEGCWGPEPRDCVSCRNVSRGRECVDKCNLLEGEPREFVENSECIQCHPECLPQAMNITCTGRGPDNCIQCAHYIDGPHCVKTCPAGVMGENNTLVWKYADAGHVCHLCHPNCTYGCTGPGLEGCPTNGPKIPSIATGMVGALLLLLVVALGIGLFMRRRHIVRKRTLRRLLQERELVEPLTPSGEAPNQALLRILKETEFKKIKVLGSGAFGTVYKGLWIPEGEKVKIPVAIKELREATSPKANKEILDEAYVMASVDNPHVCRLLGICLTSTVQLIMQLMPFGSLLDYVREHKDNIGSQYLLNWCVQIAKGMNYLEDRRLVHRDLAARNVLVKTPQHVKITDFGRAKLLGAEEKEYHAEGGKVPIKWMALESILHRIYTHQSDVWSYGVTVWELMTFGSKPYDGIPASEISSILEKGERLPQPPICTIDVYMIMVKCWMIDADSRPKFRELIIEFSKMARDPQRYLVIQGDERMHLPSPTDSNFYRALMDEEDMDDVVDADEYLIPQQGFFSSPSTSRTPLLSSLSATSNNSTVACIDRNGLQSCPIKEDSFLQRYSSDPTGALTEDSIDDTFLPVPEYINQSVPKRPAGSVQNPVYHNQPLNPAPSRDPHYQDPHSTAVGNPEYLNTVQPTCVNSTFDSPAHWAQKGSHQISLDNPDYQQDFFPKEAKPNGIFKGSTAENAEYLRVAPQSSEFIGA
Chain of Epidermal growth factor receptor [L858R] (P00533 25-1210 L858R limits assumed): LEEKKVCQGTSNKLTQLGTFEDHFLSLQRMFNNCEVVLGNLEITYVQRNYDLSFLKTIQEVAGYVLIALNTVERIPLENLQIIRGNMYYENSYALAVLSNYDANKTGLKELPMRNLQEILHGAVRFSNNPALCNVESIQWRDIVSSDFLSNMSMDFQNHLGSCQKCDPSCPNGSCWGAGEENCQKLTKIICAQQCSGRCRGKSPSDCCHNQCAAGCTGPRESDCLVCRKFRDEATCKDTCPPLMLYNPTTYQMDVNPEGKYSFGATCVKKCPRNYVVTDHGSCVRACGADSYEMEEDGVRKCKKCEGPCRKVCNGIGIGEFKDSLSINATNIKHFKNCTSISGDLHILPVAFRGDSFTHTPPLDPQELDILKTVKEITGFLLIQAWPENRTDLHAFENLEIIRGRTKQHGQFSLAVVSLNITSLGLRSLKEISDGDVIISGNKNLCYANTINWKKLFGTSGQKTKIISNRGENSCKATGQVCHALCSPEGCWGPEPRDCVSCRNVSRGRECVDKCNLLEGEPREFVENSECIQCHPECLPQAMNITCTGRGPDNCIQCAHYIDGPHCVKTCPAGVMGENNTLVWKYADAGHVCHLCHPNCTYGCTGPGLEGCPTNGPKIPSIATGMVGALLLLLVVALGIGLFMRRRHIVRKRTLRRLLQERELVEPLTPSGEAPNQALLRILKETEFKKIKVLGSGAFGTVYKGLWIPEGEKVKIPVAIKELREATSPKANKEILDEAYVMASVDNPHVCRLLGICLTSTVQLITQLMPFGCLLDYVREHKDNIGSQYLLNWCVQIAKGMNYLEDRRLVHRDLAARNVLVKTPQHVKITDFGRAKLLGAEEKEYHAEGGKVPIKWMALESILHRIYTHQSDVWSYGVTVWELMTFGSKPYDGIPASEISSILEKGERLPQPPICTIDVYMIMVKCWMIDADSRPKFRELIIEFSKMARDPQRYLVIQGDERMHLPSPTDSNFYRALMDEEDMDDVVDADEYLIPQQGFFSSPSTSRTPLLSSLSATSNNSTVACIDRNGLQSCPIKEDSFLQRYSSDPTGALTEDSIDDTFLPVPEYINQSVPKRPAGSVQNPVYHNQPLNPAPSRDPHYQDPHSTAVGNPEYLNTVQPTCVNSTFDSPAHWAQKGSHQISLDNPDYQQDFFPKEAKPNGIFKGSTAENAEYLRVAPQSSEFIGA
Chain of Epidermal growth factor receptor [T790M,L858R] (P00533 25-1210 T790M/L858R limits assumed): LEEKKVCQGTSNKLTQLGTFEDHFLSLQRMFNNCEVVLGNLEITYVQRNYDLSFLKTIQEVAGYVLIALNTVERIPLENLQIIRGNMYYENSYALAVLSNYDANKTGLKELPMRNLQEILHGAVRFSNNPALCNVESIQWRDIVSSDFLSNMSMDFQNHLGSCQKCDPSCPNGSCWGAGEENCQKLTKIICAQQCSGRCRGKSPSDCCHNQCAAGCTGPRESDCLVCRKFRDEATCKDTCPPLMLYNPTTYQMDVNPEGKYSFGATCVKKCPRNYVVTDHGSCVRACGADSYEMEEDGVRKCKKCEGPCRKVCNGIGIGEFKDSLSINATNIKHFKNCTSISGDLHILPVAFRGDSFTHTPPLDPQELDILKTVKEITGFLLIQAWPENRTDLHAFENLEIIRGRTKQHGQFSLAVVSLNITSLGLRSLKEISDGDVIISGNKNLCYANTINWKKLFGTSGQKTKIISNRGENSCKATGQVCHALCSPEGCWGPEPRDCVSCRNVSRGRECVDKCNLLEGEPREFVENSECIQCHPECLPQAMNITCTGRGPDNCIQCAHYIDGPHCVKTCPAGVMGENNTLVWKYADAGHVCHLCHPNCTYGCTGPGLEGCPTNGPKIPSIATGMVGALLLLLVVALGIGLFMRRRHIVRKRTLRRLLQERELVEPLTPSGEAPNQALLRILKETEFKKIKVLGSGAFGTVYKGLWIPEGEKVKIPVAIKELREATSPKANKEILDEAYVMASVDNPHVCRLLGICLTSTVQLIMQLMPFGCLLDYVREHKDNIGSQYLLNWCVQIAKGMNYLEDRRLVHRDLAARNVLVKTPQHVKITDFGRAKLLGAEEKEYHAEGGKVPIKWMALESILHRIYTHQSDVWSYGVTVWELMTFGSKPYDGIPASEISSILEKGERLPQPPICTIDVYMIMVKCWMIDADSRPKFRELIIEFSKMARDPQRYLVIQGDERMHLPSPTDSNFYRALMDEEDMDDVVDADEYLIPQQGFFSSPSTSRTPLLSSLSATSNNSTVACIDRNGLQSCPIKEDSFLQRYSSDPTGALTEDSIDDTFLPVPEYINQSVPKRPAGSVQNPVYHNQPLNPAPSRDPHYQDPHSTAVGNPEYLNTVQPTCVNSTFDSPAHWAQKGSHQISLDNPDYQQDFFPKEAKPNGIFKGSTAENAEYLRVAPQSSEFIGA
Chain of Epidermal growth factor receptor (P00533 whole entry): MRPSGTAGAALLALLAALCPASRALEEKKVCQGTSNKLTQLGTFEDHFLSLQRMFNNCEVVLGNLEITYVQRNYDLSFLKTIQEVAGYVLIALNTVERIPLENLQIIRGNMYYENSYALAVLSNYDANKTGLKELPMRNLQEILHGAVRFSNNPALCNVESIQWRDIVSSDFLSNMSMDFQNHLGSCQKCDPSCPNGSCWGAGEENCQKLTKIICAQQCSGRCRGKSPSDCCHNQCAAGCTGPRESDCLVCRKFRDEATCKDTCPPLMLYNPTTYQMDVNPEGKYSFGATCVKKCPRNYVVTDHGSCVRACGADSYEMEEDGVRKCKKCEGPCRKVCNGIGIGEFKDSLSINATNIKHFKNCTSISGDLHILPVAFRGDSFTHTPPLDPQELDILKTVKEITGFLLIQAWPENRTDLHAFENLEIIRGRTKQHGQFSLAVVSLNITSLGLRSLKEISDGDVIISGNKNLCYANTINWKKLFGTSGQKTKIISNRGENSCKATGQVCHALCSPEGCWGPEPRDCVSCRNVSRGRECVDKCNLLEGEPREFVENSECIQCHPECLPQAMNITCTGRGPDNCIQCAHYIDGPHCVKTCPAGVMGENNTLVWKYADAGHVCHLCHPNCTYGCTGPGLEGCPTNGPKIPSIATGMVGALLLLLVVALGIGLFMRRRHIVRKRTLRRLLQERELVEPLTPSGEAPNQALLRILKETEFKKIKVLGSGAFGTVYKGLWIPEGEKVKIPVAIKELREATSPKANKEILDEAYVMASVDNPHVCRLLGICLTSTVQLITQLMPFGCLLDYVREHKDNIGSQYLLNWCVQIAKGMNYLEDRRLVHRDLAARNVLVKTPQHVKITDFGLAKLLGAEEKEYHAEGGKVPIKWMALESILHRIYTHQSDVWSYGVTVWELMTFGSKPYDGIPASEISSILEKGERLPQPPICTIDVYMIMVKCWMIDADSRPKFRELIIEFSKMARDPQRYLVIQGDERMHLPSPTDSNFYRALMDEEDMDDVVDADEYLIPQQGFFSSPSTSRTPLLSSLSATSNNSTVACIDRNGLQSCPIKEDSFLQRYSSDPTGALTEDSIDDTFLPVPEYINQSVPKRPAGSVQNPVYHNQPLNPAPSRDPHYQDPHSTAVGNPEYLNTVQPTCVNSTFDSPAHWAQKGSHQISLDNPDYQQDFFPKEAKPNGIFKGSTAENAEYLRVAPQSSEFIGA

SMILES	IC50 [1] [nM]	IC50 [2] [nM]	IC50 [3] [nM]	IC50 [4] [nM]	IC50 [5] [nM]	IC50 [6] [nM]	IC50 [7] [nM]	IC50 [8] [nM]
Cc1c2c(nn1[C@H]1CCN(C)C[C@@H]1O)OCCCOc1c(cnn1C)-c1ccc3[nH]nc(c3c1)/C=C/2 (racemic) [US20250353864, Example 83]	1.48	5.29	61.5	19				
CCc1nn(C)c2c1/C=C/c1n[nH]c3ccc(cc13)-c1cnn(C)c1OCCCO2 [US20250353864, Example 10]		42.2	973	181				
Cc1ccc2c(n1)/C=C/c1n[nH]c3ccc(cc13)-c1cnn(C)c1O[C@@H](C)CCO2 [US20250353864, Example 39]		35.3	1070	222				
Cc1nn(C)c2c1/C=C/c1n[nH]c3ccc(cc13)-c1c(C)nn(C)c1OCCN(C)C2 [US20250353864, Example 47]	79.3	170		822	48.3	9.92	2.7	1000
Cc1c2c(nn1CCN1CCCC1)OCCOC(C)c1c(cnn1C)-c1ccc3[nH]nc(c3c1)/C=C/2 (stereo not given) [US20250353864, Example 84]	30.8	28.2	1080	285				

Second part, the compound after the results:

IC50 [1] [nM]	IC50 [2] [nM]	IC50 [3] [nM]	IC50 [4] [nM]	IC50 [5] [nM]	IC50 [6] [nM]	IC50 [7] [nM]	IC50 [8] [nM]	SMILES
10.8	28.5	413	132					Cc1nn(C)c2c1/C=C/c1n[nH]c3ccc(cc13)-c1cnn(C)c1CN(C)C[C@H](C)O2 (single isomer, unassigned) [US20250353864, Example 97]
	0.28	0.4						CCOc1nn(CCO)c2c1/C=C/c1n[nH]c3ccc(cc13)-c1cnn(C)c1O[C@H](C)[C@H]1CCCN1C2 (single isomer, unassigned) [US20250353864, Example 241]
0.06	0.45	64	4.66					Cc1c2c(nn1CCN1CCCC1)CN(C)C[C@H](C)Oc1c(cnn1C)-c1ccc3[nH]nc(c3c1)/C=C/2 [US20250353864, Example 89]
9.27	4.93	381	124					CCOc1nn(CCO)c2c1/C=C/c1n[nH]c3ccc(cc13)-c1cnn(C)c1OC1CCCN(C2)C1C (stereo not given) [US20250353864, Example 242]
